Source: ChEMBL document CHEMBL4507279, “Data for DCP probe BI-9627” (2021)

Tests used:
[1] = tested on: Tyrosine-protein kinase ABL1 (Homo sapiens), P00519 [F317I]; conditions: Compound concentration 1000.0 nM
[2] = biological target: Atypical kinase COQ8B, mitochondrial (Homo sapiens) (UniProt Q96D53); conditions: Compound concentration 1000.0 nM
[3] = biological target: ALK tyrosine kinase receptor (Homo sapiens) (UniProt Q9UM73); conditions: Compound concentration 1000.0 nM
[4] = biological target: Ankyrin repeat and protein kinase domain-containing protein 1 (Homo sapiens) (UniProt Q8NFD2); conditions: Compound concentration 1000.0 nM
Chain of Ankyrin repeat and protein kinase domain-containing protein 1 (Homo sapiens) (Q8NFD2 whole entry, the tested form may be a part): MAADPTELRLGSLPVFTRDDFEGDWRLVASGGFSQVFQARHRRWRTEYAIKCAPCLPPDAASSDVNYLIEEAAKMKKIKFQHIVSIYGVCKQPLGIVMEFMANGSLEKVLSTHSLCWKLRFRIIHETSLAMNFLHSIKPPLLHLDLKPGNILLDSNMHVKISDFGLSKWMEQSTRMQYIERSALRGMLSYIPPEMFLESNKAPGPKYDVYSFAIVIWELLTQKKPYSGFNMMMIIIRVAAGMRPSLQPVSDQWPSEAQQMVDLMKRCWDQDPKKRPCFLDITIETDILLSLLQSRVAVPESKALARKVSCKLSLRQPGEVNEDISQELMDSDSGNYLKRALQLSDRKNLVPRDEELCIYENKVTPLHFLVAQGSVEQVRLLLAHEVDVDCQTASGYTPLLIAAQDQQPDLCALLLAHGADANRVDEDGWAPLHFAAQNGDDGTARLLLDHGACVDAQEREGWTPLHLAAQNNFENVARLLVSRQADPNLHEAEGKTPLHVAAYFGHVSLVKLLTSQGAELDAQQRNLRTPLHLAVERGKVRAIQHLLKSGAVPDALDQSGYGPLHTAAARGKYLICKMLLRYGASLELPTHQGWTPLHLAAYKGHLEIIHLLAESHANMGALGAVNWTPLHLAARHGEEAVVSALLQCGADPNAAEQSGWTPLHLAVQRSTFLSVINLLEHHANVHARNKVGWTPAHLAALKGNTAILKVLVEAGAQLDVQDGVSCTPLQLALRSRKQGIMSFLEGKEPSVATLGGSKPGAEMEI

[5] = biological target: Aurora kinase B (Homo sapiens) (UniProt Q96GD4); conditions: Compound concentration 1000.0 nM
Chain of Aurora kinase B (Homo sapiens) (Q96GD4 whole entry): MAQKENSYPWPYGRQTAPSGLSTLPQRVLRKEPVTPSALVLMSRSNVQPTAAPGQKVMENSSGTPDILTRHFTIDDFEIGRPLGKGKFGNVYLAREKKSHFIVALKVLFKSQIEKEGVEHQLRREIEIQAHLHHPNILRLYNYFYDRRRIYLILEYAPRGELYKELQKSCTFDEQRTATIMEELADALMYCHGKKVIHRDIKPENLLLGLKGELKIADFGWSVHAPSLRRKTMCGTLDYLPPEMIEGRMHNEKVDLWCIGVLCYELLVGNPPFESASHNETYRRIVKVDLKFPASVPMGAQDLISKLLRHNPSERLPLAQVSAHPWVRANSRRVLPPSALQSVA

[6] = biological target: Calcium/calmodulin-dependent protein kinase kinase 1 (Homo sapiens) (UniProt Q8N5S9); conditions: Compound concentration 1000.0 nM
[7] = biological target: Cyclin-dependent kinase 11A (Homo sapiens) (UniProt Q9UQ88); conditions: Compound concentration 1000.0 nM
[8] = biological target: Casein kinase I isoform epsilon (Homo sapiens) (UniProt P49674); conditions: Compound concentration 1000.0 nM
[9] = biological target: Death-associated protein kinase 2 (Homo sapiens) (UniProt Q9UIK4); conditions: Compound concentration 1000.0 nM
Chain of Death-associated protein kinase 2 (Homo sapiens) (Q9UIK4 whole entry, looked up): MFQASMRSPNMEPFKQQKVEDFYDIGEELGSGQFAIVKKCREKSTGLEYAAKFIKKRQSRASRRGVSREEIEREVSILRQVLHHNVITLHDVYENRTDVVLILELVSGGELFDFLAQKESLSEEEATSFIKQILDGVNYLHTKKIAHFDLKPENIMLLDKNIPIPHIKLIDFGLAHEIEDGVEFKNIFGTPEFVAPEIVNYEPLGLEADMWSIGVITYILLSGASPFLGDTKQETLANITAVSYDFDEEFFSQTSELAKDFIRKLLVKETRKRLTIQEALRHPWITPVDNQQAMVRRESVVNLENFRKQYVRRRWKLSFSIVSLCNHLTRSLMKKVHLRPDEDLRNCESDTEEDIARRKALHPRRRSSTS

[10] = tested on: Epidermal growth factor receptor (Homo sapiens), P00533 [L858R,T790M]; conditions: Compound concentration 1000.0 nM
[11] = biological target: Ephrin type-A receptor 8 (Homo sapiens) (UniProt P29322); conditions: Compound concentration 1000.0 nM
[12] = biological target: Fibroblast growth factor receptor 1 (Homo sapiens) (UniProt P11362); conditions: Compound concentration 1000.0 nM
[13] = tested on: Receptor-type tyrosine-protein kinase FLT3 (Homo sapiens), P36888 [D835H]; conditions: Compound concentration 1000.0 nM
[14] = biological target: Cyclin-G-associated kinase (Homo sapiens) (UniProt O14976); conditions: Compound concentration 1000.0 nM
[15] = biological target: Tyrosine-protein kinase HCK (Homo sapiens) (UniProt P08631); conditions: Compound concentration 1000.0 nM
[16] = biological target: Homeodomain-interacting protein kinase 3 (Homo sapiens) (UniProt Q9H422); conditions: Compound concentration 1000.0 nM
[17] = biological target: Inhibitor of nuclear factor kappa-B kinase subunit epsilon (Homo sapiens) (UniProt Q14164); conditions: Compound concentration 1000.0 nM
[18] = biological target: Mast/stem cell growth factor receptor Kit (Homo sapiens) (UniProt P10721); conditions: Compound concentration 1000.0 nM
[19] = biological target: LIM domain kinase 1 (Homo sapiens) (UniProt P53667); conditions: Compound concentration 1000.0 nM
[20] = biological target: Serine/threonine-protein kinase MAK (Homo sapiens) (UniProt P20794); conditions: Compound concentration 1000.0 nM
[21] = biological target: Mitogen-activated protein kinase kinase kinase 1 (Homo sapiens) (UniProt Q13233); conditions: Compound concentration 1000.0 nM
[22] = biological target: Mitogen-activated protein kinase kinase kinase 2 (Homo sapiens) (UniProt Q9Y2U5); conditions: Compound concentration 1000.0 nM
[23] = biological target: Mitogen-activated protein kinase kinase kinase 4 (Homo sapiens) (UniProt Q9Y6R4); conditions: Compound concentration 1000.0 nM
[24] = biological target: Mitogen-activated protein kinase kinase kinase kinase 3 (Homo sapiens) (UniProt Q8IVH8); conditions: Compound concentration 1000.0 nM
[25] = biological target: Dual specificity mitogen-activated protein kinase kinase 4 (Homo sapiens) (UniProt P45985); conditions: Compound concentration 1000.0 nM
[26] = biological target: Serine/threonine-protein kinase 26 (Homo sapiens) (UniProt Q9P289); conditions: Compound concentration 1000.0 nM
[27] = biological target: Myosin light chain kinase 2, skeletal/cardiac muscle (Homo sapiens) (UniProt Q9H1R3); conditions: Compound concentration 1000.0 nM
Chain of Myosin light chain kinase 2, skeletal/cardiac muscle (Homo sapiens) (Q9H1R3 whole entry): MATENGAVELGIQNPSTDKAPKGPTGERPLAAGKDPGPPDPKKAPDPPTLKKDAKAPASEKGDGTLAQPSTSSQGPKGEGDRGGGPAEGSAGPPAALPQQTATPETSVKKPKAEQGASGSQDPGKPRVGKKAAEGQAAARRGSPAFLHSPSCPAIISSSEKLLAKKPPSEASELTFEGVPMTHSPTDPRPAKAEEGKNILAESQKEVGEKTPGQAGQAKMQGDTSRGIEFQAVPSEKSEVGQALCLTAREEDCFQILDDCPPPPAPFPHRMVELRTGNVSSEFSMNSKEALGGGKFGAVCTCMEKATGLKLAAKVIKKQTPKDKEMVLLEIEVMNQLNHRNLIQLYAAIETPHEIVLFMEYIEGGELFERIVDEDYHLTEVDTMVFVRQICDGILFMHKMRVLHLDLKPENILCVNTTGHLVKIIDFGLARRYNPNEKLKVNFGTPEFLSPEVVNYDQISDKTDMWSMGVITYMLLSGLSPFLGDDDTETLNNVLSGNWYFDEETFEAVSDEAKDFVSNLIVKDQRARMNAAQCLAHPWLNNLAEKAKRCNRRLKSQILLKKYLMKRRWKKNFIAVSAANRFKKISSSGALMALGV

[28] = biological target: Mitogen-activated protein kinase kinase kinase 14 (Homo sapiens) (UniProt Q99558); conditions: Compound concentration 1000.0 nM
[29] = biological target: Serine/threonine-protein kinase PAK 2 (Homo sapiens) (UniProt Q13177); conditions: Compound concentration 1000.0 nM
[30] = biological target: Platelet-derived growth factor receptor beta (Homo sapiens) (UniProt P09619); conditions: Compound concentration 1000.0 nM
[31] = tested on: Phosphatidylinositol 4,5-bisphosphate 3-kinase catalytic subunit alpha isoform (Homo sapiens), P42336 [I800L]; conditions: Compound concentration 1000.0 nM
[32] = tested on: Phosphatidylinositol 4,5-bisphosphate 3-kinase catalytic subunit alpha isoform (Homo sapiens), P42336 [Q546K]; conditions: Compound concentration 1000.0 nM
[33] = biological target: Serine/threonine-protein kinase pim-2 (Homo sapiens) (UniProt Q9P1W9); conditions: Compound concentration 1000.0 nM
Chain of Serine/threonine-protein kinase pim-2 (Homo sapiens) (Q9P1W9 whole entry, looked up): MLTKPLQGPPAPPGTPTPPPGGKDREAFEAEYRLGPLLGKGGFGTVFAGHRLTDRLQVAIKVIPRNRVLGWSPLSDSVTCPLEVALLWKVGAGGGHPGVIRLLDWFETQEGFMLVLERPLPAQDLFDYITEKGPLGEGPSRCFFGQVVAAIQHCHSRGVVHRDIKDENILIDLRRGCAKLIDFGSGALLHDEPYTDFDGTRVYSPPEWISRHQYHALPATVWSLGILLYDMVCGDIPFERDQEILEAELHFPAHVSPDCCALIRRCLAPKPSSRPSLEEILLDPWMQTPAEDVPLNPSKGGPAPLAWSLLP

[34] = biological target: Serine/threonine-protein kinase PLK1 (Homo sapiens) (UniProt P53350); conditions: Compound concentration 1000.0 nM
Chain of Serine/threonine-protein kinase PLK1 (Homo sapiens) (P53350 whole entry): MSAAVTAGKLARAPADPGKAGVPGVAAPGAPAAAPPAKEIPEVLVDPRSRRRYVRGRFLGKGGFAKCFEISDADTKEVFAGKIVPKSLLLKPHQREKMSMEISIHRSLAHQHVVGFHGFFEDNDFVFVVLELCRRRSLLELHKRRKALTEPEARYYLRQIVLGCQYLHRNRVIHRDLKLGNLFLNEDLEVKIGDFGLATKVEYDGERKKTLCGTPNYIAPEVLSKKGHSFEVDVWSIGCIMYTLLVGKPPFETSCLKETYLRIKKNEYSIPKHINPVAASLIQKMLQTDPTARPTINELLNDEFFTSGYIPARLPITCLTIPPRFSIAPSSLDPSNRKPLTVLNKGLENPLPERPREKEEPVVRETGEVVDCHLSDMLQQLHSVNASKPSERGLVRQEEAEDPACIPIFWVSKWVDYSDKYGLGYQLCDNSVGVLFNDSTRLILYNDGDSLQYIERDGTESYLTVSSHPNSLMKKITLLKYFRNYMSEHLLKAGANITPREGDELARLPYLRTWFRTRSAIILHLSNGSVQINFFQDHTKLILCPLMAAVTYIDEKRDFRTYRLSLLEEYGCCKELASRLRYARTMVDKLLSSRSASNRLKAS

[35] = biological target: RAF proto-oncogene serine/threonine-protein kinase (Homo sapiens) (UniProt P04049); conditions: Compound concentration 1000.0 nM
[36] = biological target: Serine/threonine-protein kinase RIO1 (Homo sapiens) (UniProt Q9BRS2); conditions: Compound concentration 1000.0 nM
[37] = biological target: Ribosomal protein S6 kinase alpha-6 (Homo sapiens) (UniProt Q9UK32); conditions: Compound concentration 1000.0 nM
[38] = biological target: Uncharacterized serine/threonine-protein kinase SBK3 (Homo sapiens) (UniProt P0C264); conditions: Compound concentration 1000.0 nM
[39] = biological target: TGF-beta receptor type-2 (Homo sapiens) (UniProt P37173); conditions: Compound concentration 1000.0 nM
[40] = biological target: BDNF/NT-3 growth factors receptor (Homo sapiens) (UniProt Q16620); conditions: Compound concentration 1000.0 nM
[41] = biological target: Non-receptor tyrosine-protein kinase TYK2 (Homo sapiens) (UniProt P29597); conditions: Compound concentration 1000.0 nM
[42] = biological target: Vascular endothelial growth factor receptor 2 (Homo sapiens) (UniProt P35968); conditions: Compound concentration 1000.0 nM
[43] = biological target: Serine/threonine-protein kinase 32B (Homo sapiens) (UniProt Q9NY57); conditions: Compound concentration 1000.0 nM
[44] = biological target: Serine/threonine-protein kinase 32C (Homo sapiens) (UniProt Q86UX6); conditions: Compound concentration 1000.0 nM
[45] = biological target: Sigma intracellular receptor 2 (Homo sapiens) (UniProt Q5BJF2); conditions: Compound concentration 10.0 uM
Chain of Sigma intracellular receptor 2 (Homo sapiens) (Q5BJF2 whole entry): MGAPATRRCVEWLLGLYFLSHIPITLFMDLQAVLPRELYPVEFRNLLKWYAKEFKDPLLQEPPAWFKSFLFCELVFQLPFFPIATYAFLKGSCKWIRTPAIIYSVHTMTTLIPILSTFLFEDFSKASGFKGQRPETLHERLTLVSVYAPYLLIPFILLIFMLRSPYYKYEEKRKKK

Chain of Tyrosine-protein kinase ABL1 (Homo sapiens), P00519 [F317I] (P00519 whole entry F317I): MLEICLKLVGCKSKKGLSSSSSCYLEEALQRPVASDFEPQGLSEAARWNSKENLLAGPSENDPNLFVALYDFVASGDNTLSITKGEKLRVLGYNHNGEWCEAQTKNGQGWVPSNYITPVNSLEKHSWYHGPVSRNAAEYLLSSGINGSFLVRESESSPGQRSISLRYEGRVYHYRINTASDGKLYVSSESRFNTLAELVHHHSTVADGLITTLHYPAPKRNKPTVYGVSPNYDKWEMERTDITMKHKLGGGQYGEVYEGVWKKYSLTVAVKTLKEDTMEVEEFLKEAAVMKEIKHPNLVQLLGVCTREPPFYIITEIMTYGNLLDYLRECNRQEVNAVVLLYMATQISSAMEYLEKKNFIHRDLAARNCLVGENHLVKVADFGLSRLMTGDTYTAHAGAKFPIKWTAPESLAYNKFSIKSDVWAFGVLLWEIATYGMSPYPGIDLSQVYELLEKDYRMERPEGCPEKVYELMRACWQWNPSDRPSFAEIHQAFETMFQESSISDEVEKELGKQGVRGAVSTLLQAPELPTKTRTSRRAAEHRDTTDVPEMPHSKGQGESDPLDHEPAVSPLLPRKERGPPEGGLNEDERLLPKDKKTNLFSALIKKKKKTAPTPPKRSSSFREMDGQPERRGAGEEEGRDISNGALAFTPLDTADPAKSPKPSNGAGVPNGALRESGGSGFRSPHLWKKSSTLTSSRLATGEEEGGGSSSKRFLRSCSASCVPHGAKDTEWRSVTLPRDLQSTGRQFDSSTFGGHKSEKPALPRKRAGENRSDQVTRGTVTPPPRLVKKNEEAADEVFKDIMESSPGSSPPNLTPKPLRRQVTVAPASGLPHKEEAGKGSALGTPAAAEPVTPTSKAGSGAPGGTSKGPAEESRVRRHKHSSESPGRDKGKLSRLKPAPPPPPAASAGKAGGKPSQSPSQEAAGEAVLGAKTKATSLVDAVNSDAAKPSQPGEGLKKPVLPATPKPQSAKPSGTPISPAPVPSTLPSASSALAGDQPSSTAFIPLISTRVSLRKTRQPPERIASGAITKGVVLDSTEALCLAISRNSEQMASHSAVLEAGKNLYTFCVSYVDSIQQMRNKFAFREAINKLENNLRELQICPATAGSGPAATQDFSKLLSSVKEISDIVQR
Chain of Atypical kinase COQ8B, mitochondrial (Homo sapiens) (Q96D53 whole entry): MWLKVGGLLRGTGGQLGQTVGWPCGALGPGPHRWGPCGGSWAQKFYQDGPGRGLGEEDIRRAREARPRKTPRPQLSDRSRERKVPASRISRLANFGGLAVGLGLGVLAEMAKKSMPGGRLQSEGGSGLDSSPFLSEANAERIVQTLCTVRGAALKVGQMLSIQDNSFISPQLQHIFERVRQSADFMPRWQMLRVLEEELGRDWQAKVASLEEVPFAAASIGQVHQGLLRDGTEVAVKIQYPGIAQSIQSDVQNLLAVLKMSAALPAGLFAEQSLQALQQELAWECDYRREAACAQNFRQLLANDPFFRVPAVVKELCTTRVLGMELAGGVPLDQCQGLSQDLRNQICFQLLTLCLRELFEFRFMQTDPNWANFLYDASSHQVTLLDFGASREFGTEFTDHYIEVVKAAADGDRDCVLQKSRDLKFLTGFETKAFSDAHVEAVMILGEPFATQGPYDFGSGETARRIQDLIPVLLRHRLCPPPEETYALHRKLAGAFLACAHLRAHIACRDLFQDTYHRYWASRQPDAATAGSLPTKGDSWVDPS

CC(=O)N1CCC(c2ccc(C(=O)NC3=NCCN3)cc2C(F)(F)F)CC1 [BI 0054]
inactive: residual activity [1] 77% | residual activity [2] 97% | residual activity [3] 89% | residual activity [4] 100% | residual activity [5] 100% | residual activity [6] 100% | residual activity [7] 100% | residual activity [8] 100% | residual activity [9] 100% | residual activity [10] 100% | residual activity [11] 93% | residual activity [12] 100% | residual activity [13] 93% | residual activity [14] 97% | residual activity [15] 100% | residual activity [16] 72% | residual activity [17] 71% | residual activity [18] 91% | residual activity [19] 100% | residual activity [20] 61% | residual activity [21] 86% | residual activity [22] 100% | residual activity [23] 81% | residual activity [24] 95% | residual activity [25] 100% | residual activity [26] 89% | residual activity [27] 100% | residual activity [28] 95% | residual activity [29] 95% | residual activity [30] 95% | residual activity [31] 94% | residual activity [32] 100% | residual activity [33] 100% | residual activity [34] 88% | residual activity [35] 100% | residual activity [36] 100% | residual activity [37] 94% | residual activity [38] 100% | residual activity [39] 100% | residual activity [40] 100% | residual activity [41] 100% | residual activity [42] 80% | residual activity [43] 100% | residual activity [44] 100% | inhibition [45] -0.12%

CC(=O)N1CCC(c2ccc(C(=O)NC(=N)N)cc2C(F)(F)F)CC1 [BI 9627]
inactive: residual activity [1] 92% | residual activity [2] 100% | residual activity [3] 93% | residual activity [4] 100% | residual activity [5] 100% | residual activity [6] 100% | residual activity [7] 92% | residual activity [8] 100% | residual activity [9] 100% | residual activity [10] 100% | residual activity [11] 100% | residual activity [12] 100% | residual activity [13] 96% | residual activity [14] 100% | residual activity [15] 100% | residual activity [16] 82% | residual activity [17] 70% | residual activity [18] 95% | residual activity [19] 100% | residual activity [20] 79% | residual activity [21] 96% | residual activity [22] 100% | residual activity [23] 98% | residual activity [24] 100% | residual activity [25] 95% | residual activity [26] 97% | residual activity [27] 85% | residual activity [28] 100% | residual activity [29] 100% | residual activity [30] 100% | residual activity [31] 90% | residual activity [32] 100% | residual activity [33] 100% | residual activity [34] 90% | residual activity [35] 100% | residual activity [36] 100% | residual activity [37] 96% | residual activity [38] 100% | residual activity [39] 100% | residual activity [40] 100% | residual activity [41] 100% | residual activity [42] 93% | residual activity [43] 89% | residual activity [44] 100% | inhibition [45] -6.34%
